The source of these data is US8198450B2, “Quinolinone derivatives and their pharmaceutical compositions” (Novartis AG, priority 2006, dated 2012).

Series [1] in a line: clinic: treatment of asthma and chronic obstructive pulmonary disease. Type of series: in vivo.
Series [2] can be described thus: hygroscopicity. It counts as physicochemical.
Series [3] is described as follows: stability of the salt. Type of series: physicochemical. To be noted: before and after micronisation, with or without excipients, with and without moisture.
Series [4] in a line: equilibration in solvents, crystalline form. It counts as physicochemical. To be noted: 1 day at 25° C. in water, ethanol and isopropanol.
A short description of series [5]: solubility in ethanol. Type of series: physicochemical.

Molecules are shown by their SMILES.

For the molecule `CCc1cc2c(cc1CC)CC(NC[C@H](O)c1ccc(O)c3[nH]c(=O)ccc13)C2.O=C(O)/C=C\C(=O)O` [(R)-5-[2-(5,6-diethyl-indan-2-ylamino)-1-hydroxyethyl]-8-hydroxy-1H-quinolin-2-one maleate], the “tested in the clinic for the treatment of asthma and chronic obstructive pulmonary disease” value in series [1] (clinic) is “tested favourably”. The “cough exhibited by certain patients on administration” value in series [1] (particularly first administration) is listed as “cough”.
Regarding `CCc1cc2c(cc1CC)CC(NC[C@H](O)c1ccc(O)c3[nH]c(=O)ccc13)C2` [Example 12, (R)-5-[2-(5,6-diethyl-indan-2-ylamino)-1-hydroxyethyl]-8-hydroxy-1H-quinolin-2-one glycolate], in series [2], the hygroscopicity result was “substantially not hydroscopic”. Besides, the stability result in series [3] was “especially stable”. Further, the “change of crystalline form after equilibration” value (from here on “change of crystalline form”) in series [4] is given as “no change of crystalline form”. For the same molecule, the solubility in ethanol result in series [5] is “low”.
For the molecule `CC(=O)O.CCc1cc2c(cc1CC)CC(NC[C@H](O)c1ccc(O)c3[nH]c(=O)ccc13)C2` [Example 15, (R)-5-[2-(5,6-diethyl-indan-2-ylamino)-1-hydroxyethyl]-8-hydroxy-1H-quinolin-2-one acetate], the hygroscopicity entry in series [2] is reported as “substantially not hydroscopic”. Also, the stability result in series [3] is reported as “especially stable”. Moreover, the “change of crystalline form” value in series [4] is given as “no change of crystalline form”. The solubility in ethanol entry in series [5] was “low”.
In the case of `CCc1cc2c(cc1CC)CC(NC[C@H](O)c1ccc(O)c3[nH]c(=O)ccc13)C2.O=C(O)CC(=O)O` [Example 21, (R)-5-[2-(5,6-diethyl-indan-2-ylamino)-1-hydroxyethyl]-8-hydroxy-1H-quinolin-2-one hydrogen malonate], the hygroscopicity result in series [2] is listed as “substantially not hydroscopic”. Besides, the stability result in series [3] is recorded as “especially stable”. Also, in series [4], the “change of crystalline form” value is “no change of crystalline form”. The solubility in ethanol entry in series [5] is recorded as “low”.
